Reference: patent US10774071B2, “PD-1/PD-L1 inhibitors” (Gilead Sciences, Inc., priority 2018, dated 2020)
pIC50: −log10 of the molar value. Read-outs that look alike come from different tables or passages of the source.

Key:
PD-1/PD-L1 = PD-1/PD-L1 (Homo sapiens (Human), UniProt Q9NZQ7); assay: PD-1/PD-L1 biochemical protein-protein interaction assay (ALPHA); assay type: binding; conditions: read-out: IC50 PD-L1-PD1
PD-L1 = PD-L1 (Homo sapiens (Human), UniProt Q9NZQ7); assay: PD-L1/PD-L1 dimerization biochemical protein-protein interaction assay (ALPHA); assay type: binding; conditions: read-out: AC50 PDL1 Dimer 1 nM
[1] = 0.3 nM His tagged PD-L1, 2.5 nM biotinylated Fc-PD-1, Table 3B
[2] = 0.5 nM His tagged PD-L1 and 0.5 nM FLAG tagged PD-L1, Table 4B
[3] = 0.3 nM His tagged PD-L1, 2.5 nM biotinylated Fc-PD-1, readings of 0.064 nM are equal to or less than 0.064 nM
[4] = 0.5 nM His tagged PD-L1 and 0.5 nM FLAG tagged PD-L1, Table 4A

PD-1/PD-L1, sequence (Q9NZQ7 19-238): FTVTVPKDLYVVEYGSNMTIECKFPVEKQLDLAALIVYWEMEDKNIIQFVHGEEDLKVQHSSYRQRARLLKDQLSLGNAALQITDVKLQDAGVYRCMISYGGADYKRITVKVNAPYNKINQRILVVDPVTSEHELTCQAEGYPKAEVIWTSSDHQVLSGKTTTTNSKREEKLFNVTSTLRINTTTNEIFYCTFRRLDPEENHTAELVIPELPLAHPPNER
PD-L1, sequence (Q9NZQ7 19-238): as above
PD-L1, sequence (Q9NZQ7 19-238): as above

Structure (SMILES)	pIC50 (PD-1/PD-L1; [1])	AC50 (PD-L1; [2]) [nM]	pIC50 (PD-1/PD-L1; [3])	AC50 (PD-L1; [4]) [nM]
COc1nc(-c2cccc(-c3cccc4c3CC[C@@H]4Oc3nc(OC)c(CN4CC[C@@](C)(C(=O)O)C4)cc3C(F)(F)F)c2Cl)ccc1CNC[C@H]1C[C@](C)(O)C1 [B-208]	10.19	23.5		
COc1nc(-c2cccc(-c3cccc4c3CC[C@@H]4Oc3nc(OC4CC4)c(CN4CC[C@@H](C(=O)O)C4)cc3Cl)c2Cl)ccc1CNC[C@@H]1CCC(=O)N1 [B-200]	10.19	20.1		
COc1nc(O[C@H]2CCc3c(-c4cccc(-c5cnc(CNC[C@@H]6CCC(=O)N6)c(OC)n5)c4Cl)cccc32)c(Cl)cc1CNC1CC(NC(C)=O)C1 (stereo partly drawn) [B-34]	9.95	22.3		
COc1nc(-c2cccc(-c3cccc4c3CC[C@@H]4Oc3nc(OC)c(CNCC(N)=O)cc3C(F)(F)F)c2Cl)ccc1CNC[C@@H]1CCC(=O)N1 [B-266]	9.60	28.5		
COc1nc(-c2cccc(-c3cccc4c3CC[C@@H]4Oc3nc(OC)c(CNCC(=O)N(C)C)cc3C(F)(F)F)c2Cl)ccc1CNC[C@@H]1CCC(=O)N1 [B-248]	10.01	15.9		
COc1nc(-c2cccc(-c3cccc4c3CC[C@@H]4Nc3nc(OC)c(CNCC(=O)O)cc3C(F)(F)F)c2Cl)ccc1CN[C@H]1C[C@](C)(O)C1 [A-67]			≥ 10.19	32.9
COc1cc(-c2cccc(-c3cccc4c3CC[C@@H]4Oc3nc(OC)c(CN4CC5(C(=O)O)CCC4CC5)cc3Cl)c2Cl)ccc1CNC[C@@H]1CCC(=O)N1 [B-39]	10.19	3.8		
COc1nc(-c2cccc(-c3cccc4c3CC[C@@H]4Oc3nc(OC)c(CN4CC5(C(=O)O)CCC4CC5)cc3Cl)c2Cl)ccc1CN[C@H]1CCCC[C@H]1O [B-50]	10.19	26.1		
CNC(=O)CCNCc1ccc(-c2cccc(-c3cccc4c3CC[C@@H]4Oc3nc(OC)c(CNCCC(=O)NC)cc3Cl)c2Cl)nc1OC [B-89]	9.41	85		
COc1nc(-c2cccc(-c3cccc4c3CC[C@@H]4Oc3nc(OC)c(CN4CCC5(C(=O)O)CC45)cc3Cl)c2Cl)ccc1CNC[C@@H]1CCC(=O)N1 (stereo partly drawn) [B-26]	10.19	18.4		
COc1nc(-c2cccc(-c3cccc4c3CC[C@@H]4Nc3nc(OC)c(CN4CCCC[C@@]4(C)C(=O)O)cc3C(F)(F)F)c2Cl)ccc1CN1CC(C)(O)C1 [A-52]			≥ 10.19	15.3
COc1nc(-c2cccc(-c3cccc4c3CC[C@@H]4Oc3nc(OC)c(CN4CCC(C)(C)[C@H]4C(=O)O)cc3Cl)c2Cl)ccc1CNC[C@@H]1CCC(=O)N1 [B-183]	10.19	25.1		
COc1cc(N[C@H]2CCc3c(-c4cccc(-c5ccc(CNC[C@@H]6CCC(=O)N6)c(OC)n5)c4Cl)cccc32)c(C(F)(F)F)cc1CN1CC2(C(=O)O)CCC1CC2 [A-12]			≥ 10.19	26.4
COc1cc(-c2cccc(-c3cccc4c3CC[C@@H]4Nc3nc(OC)c(CN4CC5(C(=O)O)CCC4CC5)nc3C(F)(F)F)c2Cl)cc(F)c1CNC[C@@H]1CCC(=O)N1 [A-33]			≥ 10.19	11.7
CCC1C(C(=O)O)CCN1Cc1cc(Cl)c(O[C@H]2CCc3c(-c4cccc(-c5ccc(CNC[C@@H]6CCC(=O)N6)c(OC)n5)c4Cl)cccc32)nc1OC (stereo partly drawn) [B-186]	10.19	19.7		
COc1nc(O[C@H]2CCc3c(-c4cccc(-c5cnc(CNC[C@@H]6CCC(=O)N6)c(OC)n5)c4C)cccc32)c(Cl)cc1CN1CC[C@@H](C(=O)O)C1 [B-81]	10.19	118		
COc1nc(-c2cccc(-c3cccc4c3CC[C@@H]4Oc3nc(OC)c(CN4CC[C@@H](C(=O)N=S(C)(=O)NC(=O)C(F)(F)F)C4)cc3Cl)c2Cl)ccc1CNC[C@@H]1CCC(=O)N1 (stereo partly drawn) [B-162]	10.09	134		
CC[C@](C)(NCc1cc(C(F)(F)F)c(O[C@H]2CCc3c(-c4cccc(-c5ccc(CNC[C@@H]6CCC(=O)N6)c(OC)n5)c4Cl)cccc32)nc1OC)C(=O)O [B-236]	10.19	3.02		
COC(=O)[C@@H]1CCN(Cc2ncc(O[C@H]3CCc4c(-c5cccc(-c6ccc(CNC[C@@H]7CCC(=O)N7)c(OC)n6)c5Cl)cccc43)nc2OC)C1 [B-157]	9.71	1420		
COc1nc(O[C@H]2CCc3c(-c4cccc(-c5cnc([C@H](C)NC[C@@H]6CCC(=O)N6)c(OC)n5)c4Cl)cccc32)c(Cl)cc1CN1CC[C@@H](C(=O)O)C1 [B-91]	10.19	33.8		
COc1nc(-c2cccc(-c3cccc4c3CC[C@@H]4Nc3nc(OC)c(CN[C@@H](C)C(N)=O)nc3C(F)(F)F)c2Cl)ccc1CNC[C@@H]1CCC(=O)N1 [A-102]			≥ 10.19	43.1
COc1nc(-c2cccc(-c3cccc4c3CC[C@@H]4Oc3nc(OC)c(CN4CC[C@@H](C(=O)N=S(C)(N)=O)C4)cc3Cl)c2Cl)ccc1CNC[C@@H]1CCC(=O)N1 (stereo partly drawn) [B-164]	9.57	66.9		
COc1nc(-c2cccc(-c3cccc4c3CC[C@@H]4Oc3nc(OCc4cc(F)cc(C#N)c4)c(CN4CC5(C(=O)O)CCC4CC5)cc3Cl)c2Cl)ccc1CNC[C@@H]1CCC(=O)N1 [B-30]	9.80	58.3		

Structure (SMILES)	pIC50 (PD-1/PD-L1; [1])	AC50 (PD-L1; [2]) [nM]	pIC50 (PD-1/PD-L1; [3])	AC50 (PD-L1; [4]) [nM]
COc1nc(-c2cccc(-c3cccc4c3CC[C@@H]4Oc3nc(OC)c(CNC(C)(C)C(=O)O)cc3C)c2Cl)ccc1CNC[C@@H]1CCC(=O)N1 [B-245]	10.19	5.94		
COC(=O)[C@H](C)NCc1nc(C(F)(F)F)c(N[C@H]2CCc3c(-c4cccc(-c5ccc(CNC[C@@H]6CCC(=O)N6)c(OC)n5)c4Cl)cccc32)nc1OC [A-99]			9.40	110
COc1cc(-c2cccc(-c3cccc4c3CC[C@@H]4Oc3nc(OC)c(CN(C)CC(=O)O)cc3C(F)(F)F)c2Cl)cc(F)c1CNC[C@@H]1CCC(=O)N1 [B-187]	10.19	2.86		
COc1nc(-c2cccc(-c3cccc4c3CC[C@@H]4Oc3nc(OC)c(C(C)NCCC(=O)O)cc3C(F)(F)F)c2Cl)ccc1CNC[C@@H]1CCC(=O)N1 (stereo partly drawn) [B-120]	10.19	18.2		
COc1nc(O[C@H]2CCc3c(-c4cccc(-c5cc(C)c(CN6CC(C(=O)O)C7(CC7)C6)c(OC)n5)c4Cl)cccc32)c(Cl)cc1CNC[C@@H]1CCC(=O)N1 (stereo partly drawn) [B-123]	10.19	133		
COc1nc(-c2cccc(-c3cccc4c3CC[C@@H]4Nc3nc(OC)c(CN4CC(C(=O)O)C4)cc3C(F)(F)F)c2Cl)ccc1CN1CC(C)(O)C1 [A-54]			≥ 10.19	76.6
COc1cc(-c2cccc(-c3cccc4c3CC[C@@H]4Nc3nc(OC)c(CN4CC[C@@H](C(=O)O)C4)cc3C(F)(F)F)c2Cl)ccc1CNC[C@@H]1CCC(=O)N1 [A-36]			≥ 10.19	2.05
COc1cc(O[C@H]2CCc3c(-c4cccc(-c5ccc(CNC[C@@H]6CCC(=O)N6)c(OC)n5)c4Cl)cccc32)c(C(F)(F)F)cc1CN1CCC[C@@]1(C)C(=O)O [B-223]	10.19	18		
CNC(=O)C1CCN(Cc2cc(Cl)c(O[C@H]3CCc4c(-c5cccc(-c6ccc(CNC[C@@H]7CCC(=O)N7)c(OC)n6)c5Cl)cccc43)nc2OC)C1 (stereo partly drawn) [B-88]	10.19	26.4		
COc1nc(-c2cccc(-c3cccc4c3CC[C@@H]4Oc3nc(OC)c(CNC[C@H]4C[C@](C)(O)C4)cc3C(F)(F)F)c2Cl)ccc1CNC[C@@H]1CCC(=O)N1 [B-261]	10.12	4.63		
COc1nc(-c2cccc(-c3cccc4c3CC[C@@H]4Oc3nc(OC)c(CNCCC(=O)O)cc3C(F)(F)F)c2Cl)ccc1CN[C@H]1C[C@](C)(O)C1 [B-254]	10.19	11.4		
COc1nc(-c2cccc(-c3cccc4c3CC[C@@H]4Oc3nc(OC)c(CN4CC[C@@H](C(=O)O)C4)nc3Cl)c2Cl)ccc1CNC[C@@H]1CCC(=O)N1 [B-154]	10.19	31.5		
CNC(=O)[C@H](C)NCc1cc(C(F)(F)F)c(O[C@H]2CCc3c(-c4cccc(-c5ccc(CNC[C@@H]6CCC(=O)N6)c(OC)n5)c4Cl)cccc32)nc1OC [B-249]	10.19	35.5		
COc1nc(-c2cccc(-c3cccc4c3CC[C@@H]4Oc3nc(OC)c(CNC[C@@H]4CCC(=O)N4)nc3Br)c2Cl)cnc1CNC[C@@H]1CCC(=O)N1 [B-38]	10.02	46.5		
CNC(=O)C1CCN(Cc2cc(Cl)c(O[C@H]3CCc4c(-c5cccc(-c6cnc(CNC[C@@H]7CCC(=O)N7)c(OC)n6)c5Cl)cccc43)nc2OC)C1 (stereo partly drawn) [B-28]	10.06	26.9		
COc1nc(-c2cccc(-c3cccc4c3CC[C@@H]4Oc3nc(OC)c(CNCC4(C(=O)O)CC4)cc3C(F)(F)F)c2Cl)ccc1CN[C@H]1C[C@](C)(O)C1 [B-251]	10.19	17.7		
COc1nc(-c2cccc(-c3cccc4c3CC[C@@H]4Oc3nc(OC)c(CN4CC[C@H](C)[C@H]4C(=O)O)cc3C(F)(F)F)c2Cl)ccc1CNC[C@@H]1CCC(=O)N1 [B-7]	10.19	4.04		
COc1nc(-c2cccc(-c3cccc4c3CC[C@@H]4Oc3nc(OC)c(CN4CC(C)(O)C4)cc3C(F)(F)F)c2Cl)ccc1CNC[C@@H]1CCC(=O)N1 [B-260]	10.19	18		
COc1nc(-c2cccc(-c3cccc4c3CC[C@@H]4Nc3nc(OC)c(CN4CCC5CC4(C(=O)O)C5)nc3C(F)(F)F)c2Cl)ccc1CNC[C@@H]1CCC(=O)N1 [A-70]			≥ 10.19	15.6
COc1cc(N[C@H]2CCc3c(-c4cccc(-c5ccc(CNC[C@@H]6CCC(=O)N6)c(OC)n5)c4Cl)cccc32)c(C(F)(F)F)nc1CN [A-44]			≥ 10.19	10.6
COc1nc(-c2cccc(-c3cccc4c3CC[C@@H]4Oc3nc(OC)c(CN4CC5CC4(C(=O)O)C5)cc3C(F)(F)F)c2Cl)ccc1CNC[C@@H]1CCC(=O)N1 [B-145]	10.19	5.12		
CC[C@@](C)(NCc1cc(C(F)(F)F)c(O[C@H]2CCc3c(-c4cccc(-c5ccc(CNC[C@@H]6CCC(=O)N6)c(OC)n5)c4Cl)cccc32)nc1OC)C(=O)O [B-235]	10.19	2.42		
